Test results from ChEMBL document CHEMBL1201862, “PubChem BioAssay data set” (2004).
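Tested at 5 concentrations; 48 h exposure; 96-well plates; endpoints linearly interpolated, else capped at highest concentration. GI50 = concentration required for 50% inhibition of growth.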 Active and inactive are the calls of the source. Rule as the data show it: active = GI50 up to about 1.1 µM and inactive = higher.

How the values were obtained:
Assay in all cases: NCI anticancer screen, dose series, 48 h
A498 = test system: A498
UACC-62 = test system: UACC-62
SF-539 = test system: SF-539
KM12 = test system: KM12
HCT-116 = test system: HCT-116
DU-145 = test system: DU-145
T47D = test system: T47D
SNB-19 = test system: SNB-19
NCI-H460 = test system: NCI-H460
COLO 205 = test system: COLO 205
OVCAR-5 = test system: OVCAR-5
EKVX = test system: EKVX
OVCAR-8 = test system: OVCAR-8
SF-268 = test system: SF-268
UO-31 = test system: UO-31
MDA-N = test system: MDA-N
SNB-75 = test system: SNB-75
HOP-92 = test system: HOP-92
MDA-MB-231 = test system: MDA-MB-231
MCF7 = test system: MCF7
HL-60 = test system: HL-60
Malme-3M = test system: Malme-3M
HCC 2998 = test system: HCC 2998
U-251 = test system: U-251
SK-MEL-5 = test system: SK-MEL-5
MOLT-4 = test system: MOLT-4
RXF 393 = test system: RXF 393
SK-MEL-28 = test system: SK-MEL-28
RPMI-8226 = test system: RPMI-8226
K562 = test system: K562
HCT-15 = test system: HCT-15
A549 = test system: A549
MDA-MB-435 = test system: MDA-MB-435
SR = test system: SR
OVCAR-3 = test system: OVCAR-3
ACHN = test system: ACHN
Hs-578T = test system: Hs-578T
TK-10 = test system: TK-10
NCI-H522 = test system: NCI-H522
IGROV-1 = test system: IGROV-1
HT-29 = test system: HT-29
LOX IMVI = test system: LOX IMVI
M14 = test system: M14
NCI-H226 = test system: NCI-H226
SW-620 = test system: SW-620
CAKI-1 = test system: CAKI-1
SN12C = test system: SN12C
NCI/ADR-RES = test system: NCI/ADR-RES
NCI-H23 = test system: NCI-H23
SK-OV-3 = test system: SK-OV-3
OVCAR-4 = test system: OVCAR-4
CCRF-CEM = test system: CCRF-CEM
BT-549 = test system: BT-549
PC-3 = test system: PC-3
SF-295 = test system: SF-295
786-0 = test system: 786-0
SK-MEL-2 = test system: SK-MEL-2
UACC-257 = test system: UACC-257
HOP-62 = test system: HOP-62

COc1ccc(-c2c(CN3CCOCC3)sc3nc4ccccc4n23)cc1
GI50 (A498): 23.7 µM (inactive) | GI50 (UACC-62): 16.7 µM (inactive) | GI50 (SF-539): 16.8 µM (inactive) | GI50 (KM12): 9.48 µM (inactive) | GI50 (HCT-116): 9.84 µM (inactive) | GI50 (DU-145): 28.2 µM (inactive) | GI50 (T47D): 18 µM (inactive) | GI50 (SNB-19): 11.5 µM (inactive) | GI50 (NCI-H460): 8.41 µM (inactive) | GI50 (COLO 205): 16.4 µM (inactive) | GI50 (OVCAR-5): 32.3 µM (inactive) | GI50 (EKVX): 15.2 µM (inactive) | GI50 (OVCAR-8): 26.5 µM (inactive) | GI50 (SF-268): 18.5 µM (inactive) | GI50 (UO-31): 30.3 µM (inactive) | GI50 (MDA-N): 2.06 µM (inactive) | GI50 (SNB-75): 14.3 µM (inactive) | GI50 (HOP-92): 23.1 µM (inactive) | GI50 (MDA-MB-231): 23 µM (inactive) | GI50 (MCF7): 8.32 µM (inactive) | GI50 (HL-60): 9.42 µM (inactive) | GI50 (Malme-3M): 3.9 µM (inactive) | GI50 (HCC 2998): 19 µM (inactive) | GI50 (U-251): 16.1 µM (inactive) | GI50 (SK-MEL-5): 6.43 µM (inactive) | GI50 (MOLT-4): 10.3 µM (inactive) | GI50 (RXF 393): 8.55 µM (inactive) | GI50 (SK-MEL-28): 18.6 µM (inactive) | GI50 (RPMI-8226): 5.51 µM (inactive) | GI50 (K562): 3.31 µM (inactive) | GI50 (HCT-15): 5.58 µM | GI50 (A549): 22.2 µM (inactive) | GI50 (MDA-MB-435): 2.94 µM (inactive) | GI50 (SR): 3.39 µM (inactive) | GI50 (OVCAR-3): 9.86 µM (inactive) | GI50 (ACHN): 36.6 µM (inactive) | GI50 (Hs-578T): 21.6 µM (inactive) | GI50 (TK-10): 58.6 µM (inactive) | GI50 (NCI-H522): 2.58 µM (inactive) | GI50 (IGROV-1): 8.09 µM (inactive) | GI50 (HT-29): 8.41 µM (inactive) | GI50 (LOX IMVI): 18.5 µM (inactive) | GI50 (M14): 7.53 µM (inactive) | GI50 (NCI-H226): 42.1 µM (inactive) | GI50 (SW-620): 12.2 µM (inactive) | GI50 (CAKI-1): 28.5 µM (inactive) | GI50 (SN12C): 33.4 µM (inactive) | GI50 (NCI/ADR-RES): 4.92 µM (inactive) | GI50 (NCI-H23): 27.4 µM (inactive) | GI50 (SK-OV-3): 21.6 µM (inactive) | GI50 (OVCAR-4): 47.6 µM (inactive) | GI50 (CCRF-CEM): 0.0435 µM (active) | GI50 (BT-549): > 49.4 µM (inactive) | GI50 (PC-3): 9.33 µM (inactive) | GI50 (SF-295): 9.08 µM (inactive) | GI50 (786-0): 17.2 µM (inactive) | GI50 (SK-MEL-2): 30.5 µM (inactive) | GI50 (UACC-257): > 72.1 µM (inactive) | GI50 (HOP-62): 31 µM (inactive)

O=c1[nH]nc(-c2ccccc2)c2[nH]c3c(c12)Cc1ccccc1-3
GI50 (A498): 2.35 µM (inactive) | GI50 (UACC-62): 0.299 µM (active) | GI50 (SF-539): 2.34 µM (inactive) | GI50 (KM12): < 0.0306 µM (active) | GI50 (HCT-116): 1.82 µM (inactive) | GI50 (DU-145): 10.4 µM (inactive) | GI50 (T47D): > 100 µM (inactive) | GI50 (SNB-19): 7.06 µM (inactive) | GI50 (NCI-H460): 2.11 µM (inactive) | GI50 (COLO 205): 1.61 µM (inactive) | GI50 (OVCAR-5): 7.16 µM (inactive) | GI50 (EKVX): 6.79 µM (inactive) | GI50 (OVCAR-8): 6.61 µM (inactive) | GI50 (SF-268): 2.87 µM (inactive) | GI50 (UO-31): 5.41 µM (inactive) | GI50 (MDA-N): 0.38 µM (active) | GI50 (SNB-75): 3.28 µM (inactive) | GI50 (HOP-92): 1.67 µM (inactive) | GI50 (MDA-MB-231): 0.378 µM (active) | GI50 (MCF7): 0.158 µM (active) | GI50 (HL-60): 0.665 µM (active) | GI50 (Malme-3M): 1.08 µM (active) | GI50 (HCC 2998): 6.82 µM (inactive) | GI50 (U-251): 3.64 µM (inactive) | GI50 (SK-MEL-5): 0.115 µM (active) | GI50 (MOLT-4): 1.19 µM (inactive) | GI50 (RXF 393): 6.19 µM (inactive) | GI50 (SK-MEL-28): 6.01 µM (inactive) | GI50 (RPMI-8226): 2.37 µM (inactive) | GI50 (K562): 0.839 µM (active) | GI50 (HCT-15): 0.374 µM | GI50 (A549): 21.2 µM (inactive) | GI50 (MDA-MB-435): 0.386 µM (active) | GI50 (SR): 0.069 µM (active) | GI50 (OVCAR-3): 0.914 µM (active) | GI50 (ACHN): 6.18 µM (inactive) | GI50 (Hs-578T): 5.46 µM (inactive) | GI50 (TK-10): 7.59 µM (inactive) | GI50 (NCI-H522): 0.295 µM (active) | GI50 (IGROV-1): 0.723 µM (active) | GI50 (HT-29): 1.4 µM (inactive) | GI50 (LOX IMVI): 6.11 µM (inactive) | GI50 (M14): 4.06 µM (inactive) | GI50 (NCI-H226): 3.9 µM (inactive) | GI50 (SW-620): 2.06 µM (inactive) | GI50 (CAKI-1): 13.8 µM (inactive) | GI50 (SN12C): 2.32 µM (inactive) | GI50 (NCI/ADR-RES): 2.14 µM (inactive) | GI50 (NCI-H23): > 26.5 µM (inactive) | GI50 (SK-OV-3): 6.68 µM (inactive) | GI50 (OVCAR-4): 3.79 µM (inactive) | GI50 (CCRF-CEM): 3.92 µM (inactive) | GI50 (BT-549): 21.7 µM (inactive) | GI50 (PC-3): 4.47 µM (inactive) | GI50 (SF-295): 1.97 µM (inactive) | GI50 (786-0): 4.8 µM (inactive) | GI50 (SK-MEL-2): 1.43 µM (inactive) | GI50 (HOP-62): 9.38 µM (inactive)
